Measured values as given in patent US20120157396A1, “PYRAZINAMIDE FOR IMMUNOSTIMULATION AND THE TREATMENT OF LEISHMANIASES” (priority 2009, published 2012).

Experiments:
[1] = test system: J774 cells; assay: J774 cell activation, surface markers by flow cytometry; assay type: cell-based, murine; settings: 10 and 100 μM, with or without L. major
Procedure: Because of the strong in vivo effect of PZA, we studied the effect of treatment on macrophages. First, we looked at activation markers and cytokine secretion by J774 cells (a murine macrophage cell line) following treatment with PZA (10 and 100 μM) in the presence or absence of L. major infection (1:5 macrophage:parasite ratio) were examined. As a positive control, cells were exposed to a mixture of IFN-γ and LPS, known to increase the level of activation. Expression of surface molecules was determined in unstimulated cells, and on infected, untreated cultures. Twenty-four hours after infection and/or treatment, cells were collected and stained with fluorescent antibodies against the co-stimulatory molecules CD80 and CD86, as well as MHC Class II, and analyzed by flow cytometry.
J774 cells or bone marrow-derived cells were seeded onto 24-well plates at a concentration of 5×10^5 cells/ml. Twenty-four hours later, PZA was added to the wells at different concentrations in the absence or presence of L. major (1:5 parasite ratio). In some experiments, J774 cells were treated with amphotericin B (0.1, 0.5, or 1 μg/ml). […] For each sample, at least 50,000 cells were analyzed. The data were collected and analyzed using CELLQuest software and a FACScalibur flow cytometer (Becton Dickinson, San Jose, Calif.).

[2] = test system: J774 cells; assay: Cytokine (ELISA) and nitric oxide (Griess test) production in J774 cells; assay type: cell-based, murine; settings: for production of cytokines (IL-12, TNF-α) and NO release: J774 cells, irrespective of infection (FIG. 14)
Procedure: The ability of J774 cells to produce cytokines in response to infection and/or treatment was also determined. Cells were infected, treated or activated as described above. The amount of the proinflammatory cytokines IL-12 and TNF-α (implicated in Thl response and parasite killing), as well as the repressive cytokine IL-10, was determined by ELISA in the culture supernatants. The level of nitric oxide was also determined in the same supernatants. PZA treatment alone increased cytokine production, especially IL-12 and TNF-α and NO release. […] Finally, to test the specificity of the immune activation by PZA, we determined the effect that amphotericin B treatment had on activation and cytokine expression by J774 cells.
(§1) J774 cells or bone marrow-derived cells were seeded onto 24-well plates at a concentration of 5×10^5 cells/ml. Twenty-four hours later, PZA was added to the wells at different concentrations in the absence or presence of L. major (1:5 parasite ratio). In some experiments, J774 cells were treated with amphotericin B (0.1, 0.5, or 1 μg/ml). Two control groups were also included in this experiment: a positive control of activation consisting in a group of uninfected cells treated with 100 ng/ml LPS and 10 IU IFN-γ as a positive control of activation, and a negative control of activation, consisting in uninfected, untreated cells. Cell cultures were maintained overnight, and then cultured for an additional 6 h with brefeldin A (10 μg/ml), harvested by scraping and fixed in 2% paraformaldehyde. Prior to staining, cells were incubated with an anti-Fc III/II receptor and 10% normal mouse serum (NMS) in PBS containing 0.1% BSA, 0.01% NaN3. Cells were permeabilized with saponin and stained for the surface markers CD80 (clone 16-10A1), CD86 (clone GL1), MHCI (clone 28-14-8), MHCII (clone M5/114.15.2) and for the cytokines IL-12p40/p70 (clone C17.8) and IL-10 (clone JESS-16E3). Incubations were carried out for 30 min on ice. All antibodies were purchased from BD Biosciences or eBioscience. For each sample, at least 50,000 cells were analyzed. The data were collected and analyzed using CELLQuest software and a FACScalibur flow cytometer (Becton Dickinson, San Jose, Calif.).

[3] = test system: bone marrow-derived macrophages; assay: Cytokine and NO production in bone marrow-derived macrophages; assay type: cell-based, C57BL/6 mice; design: unit not given here; settings: macrophage, drug 100 μM
Procedure: (§2) Bone marrow cells were obtained and were grown in the presence of the cytokines M-CSF or GM-CSF to induce differentiation of macrophages or dendritic cells, respectively. The study of the immune response of dendritic cells was included because of their importance for the initiation of the immune response against L. major. […] Again, this effect was rescued by the treatment of macrophages with compounds of formula I, namely, either PZA or 5-Cl PZA.
(§3) Parasite and cell culture. L. major clone V1 (MHOM/IL/80/Friedlin) promastigotes were grown at 26° C. in medium 199 supplemented with 20% heat-inactivated fetal calf serum (FCS, Gemini, Sacramento), 100 U/ml penicillin, 100 μg/ml streptomycin, 2 mM L-glutamine, 40 mM Hepes, 0.1 mM adenine (in 50 mM Hepes) and […] hemin (in 50% triethanolamine). The macrophage murine cell line J774 (Cat. No. TIB-67TM) was cultured in DMEM (Sigma-Aldrich, St. Louis, Mo.) with 10% FCS, 100 U/ml penicillin, 100 μg/ml streptomycin and 2 mM glutamine (Sigma-Aldrich) at 37° C. under 5% CO2 atmosphere. Culture medium was changed twice per week. Subcultures were performed when monolayers covered 90% of the bottom of culture flasks. For experiments involving macrophages and dendritic cells, bone marrow was obtained from C57BL/6 mouse femurs and grown for 6-8 days in RPMI 1640 supplemented as above in the presence of 10% L929 conditioned medium (to generate macrophages) or 20 ng/ml GM-CSF (to generate dendritic cells).
as §1

[4] = test system: bone marrow-derived dendritic cells; assay: Cytokine and NO production in bone marrow-derived dendritic cells; assay type: cell-based, C57BL/6 mice; design: unit not given here; settings: dendritic cell, drug 100 μM
Procedure: as §2, §3, §1

[5] = test system: bone marrow-derived macrophages; assay: Cytokine and NO production in bone marrow-derived macrophages; assay type: cell-based, C57BL/6 mice; design: unit not given here; settings: macrophage, drug 100 μM; remark: listed apart in the source
[6] = test system: bone marrow-derived dendritic cells; assay: Cytokine and NO production in bone marrow-derived dendritic cells; assay type: cell-based, C57BL/6 mice; design: unit not given here; settings: dendritic cell, drug 100 μM; remark: listed apart in the source
[7] = L. major-infected J774, PZA 10 μM
[8] = L. major-infected J774, PZA 100 μM

Compound | expression of costimulatory molecules CD80, CD86 and MHC Class II [1] | production of cytokines (IL-12, TNF-α) and NO release [2] | IL-10 production ([3]; infected with L. major (Lm)) | IL-12 production ([3]; infected with L. major (Lm)) | IL-10 production ([3]; uninfected) | IL-12 production ([3]; uninfected) | IL-10 production ([4]; infected with L. major (Lm)) | IL-12 production ([4]; infected with L. major (Lm)) | IL-10 production ([4]; uninfected) | IL-12 production ([4]; uninfected) | NO production ([5]; infected with L. major (Lm)) | TNF-α production ([5]; infected with L. major (Lm)) | NO production ([5]; uninfected) | TNF-α production ([5]; uninfected) | NO production ([6]; infected with L. major (Lm)) | TNF-α production ([6]; infected with L. major (Lm)) | NO production ([6]; uninfected) | TNF-α production ([6]; uninfected) | other results
NC(=O)c1cnccn1 [PZA, pyrazinamide] | increased expression | increased | 199 ± 120 | 921 ± 445 | 155 ± 21 | 867 ± 546 | 203 ± 60 | 1035 ± 785 | 185 ± 63 | 956 ± 145 | 699 ± 112 | 921 ± 345 | 543 ± 221 | 758 ± 246 | 699 ± 612 | 1856 ± 125 | 545 ± 221 | 1654 ± 546 | IL-10 production [2, 7]: 109 ± 39 pg/mL; IL-12 production [2, 7]: 253 ± 68 pg/mL; Nitric Oxide production [2, 7]: 289 ± 55 pg/mL; TNF-α production [2, 7]: 259 ± 163 pg/mL; IL-10 production [2, 8]: 112 ± 44 pg/mL; IL-12 production [2, 8]: 299 ± 55 pg/mL; Nitric Oxide production [2, 8]: 498 ± 74 pg/mL; TNF-α production [2, 8]: 489 ± 154 pg/mL; IL-10 production ([2]; uninfected J774, PZA 10 μM): 112 ± 45 pg/mL; IL-12 production ([2]; uninfected J774, PZA 10 μM): 178 ± 38 pg/mL; Nitric Oxide production ([2]; uninfected J774, PZA 10 μM): 254 ± 44 pg/mL; TNF-α production ([2]; uninfected J774, PZA 10 μM): 245 ± 159 pg/mL; IL-10 production ([2]; uninfected J774, PZA 100 μM): 145 ± 56 pg/mL; IL-12 production ([2]; uninfected J774, PZA 100 μM): 359 ± 65 pg/mL; Nitric Oxide production ([2]; uninfected J774, PZA 100 μM): 476 ± 52 pg/mL; TNF-α production ([2]; uninfected J774, PZA 100 μM): 377 ± 105 pg/mL
NC(=O)c1cnc(Cl)cn1 [5-Cl PZA, 5-chloro pyrazinamide] | enhanced | increased | 499 ± 312 | 1821 ± 645 | 415 ± 210 | 1767 ± 526 | 342 ± 398 | 2121 ± 945 | 265 ± 213 | 1962 ± 765 | 1599 ± 812 | 1928 ± 444 | 1145 ± 721 | 1598 ± 542 | 876 ± 172 | 2986 ± 566 | 745 ± 211 | 17684 ± 678 | proinflammatory cytokines stimulated relative to PZA ([2]; IL-2 production (FIG. 9B), also in Leishmania-infected macrophages): 2 ×
